Measured values published in ChEMBL document CHEMBL5260849, “Current advances in Vibrio harveyi quorum sensing as drug discovery targets” (Eur J Med Chem, 2020).
In brackets after ≈: the same amount, converted by molar mass.

Key:
[1] = Toxicity in […] mouse with abdominal infection assessed survival rate at 4.5 microg/g,ip and measured after 4 days; conditions: in vivo, dose 4.5 µg/g, time 4 day
[2] = target: LuxP/Q (Vibrio harveyi, UniProt P54300+P54302); assay: Antagonist activity against LuxPQ quorum sensing system in Vibrio harveyi MM32 assessed as inhibition of luminescence intensity incubated for 3 to 4 hrs by luminescence microplate reader analysis; assay type: protein-complex assay
Sequence of LuxP/Q (P54300 whole entry): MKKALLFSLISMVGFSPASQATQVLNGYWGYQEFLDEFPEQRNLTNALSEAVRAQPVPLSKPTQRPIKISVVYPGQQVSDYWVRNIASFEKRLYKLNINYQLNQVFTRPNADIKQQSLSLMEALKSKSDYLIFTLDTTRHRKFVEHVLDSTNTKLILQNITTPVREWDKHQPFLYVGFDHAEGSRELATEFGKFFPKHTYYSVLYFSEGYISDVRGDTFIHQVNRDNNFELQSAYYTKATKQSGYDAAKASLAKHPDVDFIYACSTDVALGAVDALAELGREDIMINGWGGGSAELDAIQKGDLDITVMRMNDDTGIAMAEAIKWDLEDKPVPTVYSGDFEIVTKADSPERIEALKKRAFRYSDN
Sequence of LuxP/Q (P54302 whole entry): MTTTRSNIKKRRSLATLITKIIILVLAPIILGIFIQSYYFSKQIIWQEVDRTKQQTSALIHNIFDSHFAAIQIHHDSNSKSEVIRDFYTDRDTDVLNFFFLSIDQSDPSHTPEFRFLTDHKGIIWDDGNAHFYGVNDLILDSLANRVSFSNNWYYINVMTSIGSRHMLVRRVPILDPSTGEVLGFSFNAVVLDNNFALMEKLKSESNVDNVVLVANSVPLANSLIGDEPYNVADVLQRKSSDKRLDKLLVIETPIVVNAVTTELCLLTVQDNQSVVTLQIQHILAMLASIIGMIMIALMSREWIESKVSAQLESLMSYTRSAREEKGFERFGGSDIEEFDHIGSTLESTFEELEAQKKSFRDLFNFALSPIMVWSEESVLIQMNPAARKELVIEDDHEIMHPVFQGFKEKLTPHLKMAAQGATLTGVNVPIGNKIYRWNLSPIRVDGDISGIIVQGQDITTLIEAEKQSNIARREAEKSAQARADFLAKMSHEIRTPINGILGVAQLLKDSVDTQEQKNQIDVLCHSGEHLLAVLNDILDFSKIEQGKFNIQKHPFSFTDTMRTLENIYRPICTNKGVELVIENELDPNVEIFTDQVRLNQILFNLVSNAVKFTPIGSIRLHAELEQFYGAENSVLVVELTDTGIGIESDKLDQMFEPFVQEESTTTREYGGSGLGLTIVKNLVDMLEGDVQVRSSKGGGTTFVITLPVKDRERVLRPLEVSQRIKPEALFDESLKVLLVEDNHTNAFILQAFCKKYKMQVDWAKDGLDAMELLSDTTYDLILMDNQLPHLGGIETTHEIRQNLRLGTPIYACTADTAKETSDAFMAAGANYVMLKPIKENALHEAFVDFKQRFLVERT

[3] = tested on: Vibrio harveyi; assay: Inhibition of biofilm formation in Vibrio harveyi BB120 at 500 uM for 24 hrs by crystal violet assay; assay type: functional
[4] = tested on: Vibrio harveyi; assay: Antibiofilm activity against Vibrio harveyi BB170 assessed as inhibition of biofilm formation at 200 uM by Crystal violet biofilm assay; assay type: functional
[5] = Inhibition of quorum-sensing system in Vibrio harveyi BB152 assessed as inhibition of QS-mediated bioluminescence at 0.02 to 200 uM incubated for 18 hrs by Luminescence assay; conditions: dose 0.02-200 µM
[6] = Inhibition of quorum-sensing system in Vibrio harveyi MM77 assessed as inhibition of QS-mediated bioluminescence at 0.02 to 200 uM incubated for 18 hrs by Luminescence assay; conditions: dose 0.02-200 µM
[7] = tested on: Vibrio harveyi; assay: Inhibition of biofilm formation in Vibrio harveyi BB152 at 200 ug/ml for 24 hrs by crystal violet assay; assay type: functional
[8] = tested on: Vibrio harveyi; assay: Antimicrobial activity against Vibrio harveyi BB152 assessed as decrease in swimming motility at 200 ug/ml incubated for 15 hrs by agar plate reader analysis; assay type: functional; set-up: scale not given: the % may be the effect or the level left; conditions: dose 200 µg/ml
[9] = tested on: Vibrio harveyi; assay: Antimicrobial activity against Vibrio harveyi BB120 assessed as decrease in swimming motility at 200 ug/ml incubated for 15 hrs by agar plate reader analysis; assay type: functional; set-up: scale not given: the % may be the effect or the level left; conditions: dose 200 µg/ml
[10] = tested on: Vibrio harveyi; assay: Antimicrobial activity against Vibrio harveyi MM30 assessed as decrease in swimming motility at 200 ug/ml incubated for 15 hrs by agar plate reader analysis; assay type: functional; set-up: scale not given: the % may be the effect or the level left; conditions: dose 200 µg/ml
[11] = Inhibition of quorum-sensing system in Vibrio harveyi BB170 assessed as inhibition of QS-mediated bioluminescence at 0.02 to 200 uM incubated for 18 hrs by Luminescence assay; conditions: dose 0.02-200 µM
[12] = tested on: Vibrio harveyi; assay: Inhibition of biofilm formation in Vibrio harveyi MM77 assessed as inhibition of exopolysaccharides production at 200 uM incubated for 24 hrs by Fluorescence assay; assay type: functional
[13] = tested on: Vibrio harveyi; assay: Inhibition of Vibrio harveyi BB886 LuxS assessed as inhibition of autoinducer-2 induced QS activity at 100 uM for 16 hrs by bioluminescence assay
[14] = target: Autoinducer 2-binding periplasmic protein LuxP (Vibrio harveyi) (UniProt P54300); assay: Antagonist activity against LuxP signalling in Vibrio harveyi BB170 assessed as inhibition of AI-2 regulated bioluminescence at 20 to 40 uM and measured after 2.5 hrs by bioluminescence assay; conditions: filed as antagonist, dose 20-40 µM
Sequence of Autoinducer 2-binding periplasmic protein LuxP (Vibrio harveyi) (P54300 whole entry): as the sequence (P54300 whole entry) above

[15] = target: LuxP/Q (Vibrio harveyi) (UniProt P54300+P54302); assay: Antagonist activity against Vibrio harveyi BB886 LuxPQ assessed as inhibition of AI-2 induced bioluminescence at 40 uM and measured after 6 hrs by bioluminescence assay; assay type: protein-complex assay
[16] = target: T1, Autoinducer 1 sensor kinase/phosphatase LuxN (Vibrio harveyi, UniProt P0C5S6); assay: Antagonist activity at LuxN signaling in Vibrio harveyi HLS253 assessed as inhibition of 3-hydroxybutanoyl homoserine lactone induced bioluminescence by autoinducer based bioluminescence assay
T1 sequence (P0C5S6 whole entry): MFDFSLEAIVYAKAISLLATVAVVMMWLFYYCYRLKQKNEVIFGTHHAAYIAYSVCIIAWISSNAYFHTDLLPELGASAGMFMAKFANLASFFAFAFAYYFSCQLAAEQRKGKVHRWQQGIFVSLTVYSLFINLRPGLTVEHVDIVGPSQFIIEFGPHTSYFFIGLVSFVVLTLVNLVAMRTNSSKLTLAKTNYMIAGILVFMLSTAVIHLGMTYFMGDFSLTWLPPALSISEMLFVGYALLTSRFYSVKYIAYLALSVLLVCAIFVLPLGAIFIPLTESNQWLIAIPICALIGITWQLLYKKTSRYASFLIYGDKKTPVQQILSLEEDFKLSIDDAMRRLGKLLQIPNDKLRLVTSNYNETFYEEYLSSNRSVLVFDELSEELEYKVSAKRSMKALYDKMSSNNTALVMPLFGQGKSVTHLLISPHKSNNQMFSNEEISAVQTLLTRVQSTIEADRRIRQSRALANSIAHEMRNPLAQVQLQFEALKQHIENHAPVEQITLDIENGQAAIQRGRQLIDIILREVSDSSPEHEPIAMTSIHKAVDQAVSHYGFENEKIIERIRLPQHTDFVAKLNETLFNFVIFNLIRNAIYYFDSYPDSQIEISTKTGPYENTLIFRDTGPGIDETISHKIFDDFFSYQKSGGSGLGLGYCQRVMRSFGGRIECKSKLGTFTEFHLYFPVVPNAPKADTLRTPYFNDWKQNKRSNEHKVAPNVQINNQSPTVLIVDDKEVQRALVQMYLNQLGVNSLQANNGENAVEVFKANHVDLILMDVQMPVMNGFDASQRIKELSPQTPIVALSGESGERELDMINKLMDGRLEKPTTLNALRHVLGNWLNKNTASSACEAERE

[17] = tested on: Vibrio harveyi; assay: Inhibition of CAI-1 mediated quorum-sensing in Vibrio harveyi JMH626 assessed as inhibition of CAI-1 mediated luminescence at 2 uM by bioluminescence assay
[18] = tested on: Vibrio harveyi; assay: Antibacterial activity against Vibrio harveyi MTCC 3438 assessed as bacterial growth inhibition incubated for 24 hrs by broth microdilution assay; assay type: functional
[19] = tested on: Vibrio harveyi; assay: Antibiofilm activity against Vibrio harveyi MTCC 3438 assessed as inhibition of biofilm formation at 250 ug/ml for 16 hrs by crystal violet staining based spectrophotometric assay; assay type: functional
[20] = Inhibition of quorum sensing system in Vibrio harveyi MTCC 3438 assessed fold decrease in luxQ expression at 250 ug/ml by qPCR assay; conditions: dose 250.0 µg/ml
[21] = Inhibition of quorum sensing system in Vibrio harveyi MTCC 3438 assessed fold decrease in luxR expression at 250 ug/ml by qPCR assay; conditions: dose 250.0 µg/ml
[22] = tested on: Vibrio harveyi; assay: Antibacterial activity against Vibrio harveyi MTCC 3438 assessed as reduction in cell surface hydrophobicity at 250 ug/ml for 10 mins by BATH assay; assay type: functional; conditions: MTCC 3438, 10 min
[23] = Inhibition of quorum sensing system in Vibrio harveyi MTCC 3438 assessed fold decrease in luxS expression at 250 ug/ml by qPCR assay; conditions: dose 250.0 µg/ml
[24] = tested on: Vibrio harveyi; assay: Inhibition of biofilm formation in Vibrio harveyi MTCC 3438 assessed as reduction in exopolysaccharides production at 250 ug/ml for 24 hrs by spectrophotometric assay; assay type: functional
[25] = tested on: Vibrio harveyi; assay: Antibacterial activity against Vibrio harveyi MTCC 3438 infected Litopenaeus vannamei larvae assessed as increase in survival rate at 250 ug/ml and measured upto 96 hrs; assay type: functional
[26] = Inhibition of quorum sensing system in Vibrio harveyi MTCC 3438 assessed fold decrease in luxO expression at 250 ug/ml by qPCR assay; conditions: dose 250.0 µg/ml
[27] = Inhibition of quorum sensing system in Vibrio harveyi MTCC 3438 assessed fold decrease in luxP expression at 250 ug/ml by qPCR assay; conditions: dose 250.0 µg/ml
[28] = target: T1, Autoinducer 1 sensor kinase/phosphatase LuxN; assay: Antagonist activity against Vibrio harveyi BB120 LuxN assessed as inhibition of AI-2 regulated bioluminescence and measured after 6 hrs by bioluminescence assay
[29] = tested on: Vibrio harveyi; assay: Antibacterial activity against Vibrio harveyi infected […] franciscana assessed as increase in survival rate at 20 uM and measured after 60 hrs by light microscopy; assay type: functional
[30] = Inhibition of quorum-sensing system in Vibrio harveyi assessed as inhibition of bioluminescence at 20 uM by bioluminescence assay
[31] = Inhibition of quorum-sensing system in Vibrio harveyi BB170 assessed as inhibition of AI-2 at 0.1 to 10 uM and measured after 24 hrs by bioluminescence assay; conditions: dose 0.1-10 µM
[32] = target: T2, Autoinducer 1 sensor kinase/phosphatase LuxN (Vibrio harveyi) (UniProt P0C5S6); assay: Inhibition of LuxN quorum sensing signaling in Vibrio harveyi BB886 assessed as inhibition of N-acylhomoserine lactone (HAI-1) activity by measuring bioluminescence for every 20 mins by autoinducer bioassay
T2 sequence (whole entry): T1 sequence (P0C5S6 whole entry)

[33] = Inhibition of quorum-sensing system in Vibrio harveyi BB170 assessed as inhibition of LuxU induced bioluminescence by bioluminescence assay; set-up: concentration or dose not given beside the values; conditions: concentration not given here

## CCCCC1=C(Br)/C(=C/Br)OC1=O
[1]
  survival at 96 h: 90%

## Cc1ccc(B(O)O)c(F)c1
[2]
  IC50: 4 µM

## COc1cc(O)cc([C@@H]2CC(=O)c3c(OC)cc(O)cc3O2)c1
[3]
  inhibition at 500 µM: 68%

## CC(=O)C(=O)C(F)CO (stereo not given)
[4]
  inhibition at 200 µM: 90%

## CCCCCCC(C)(C)c1cc(O)c2c(c1)OC(C)(C)[C@@H]1CC=C(CO)C[C@@H]21
[5]
  inhibition: 98%
[6]
  inhibition: 95%
[7]
  inhibition at 200 µg/mL: 80%
[8]
  Activity: 85%
[9]
  Activity: 80%
[10]
  Activity: 95%
[11]
  inhibition: 85%
[12]
  inhibition at 200 µM: 75%

## O=C1C=C/C(=C/Br)O1
[13]
  inhibition: 96%

## CC(C)C(=O)C(=O)C(O)CO (stereo not given)
[14]
  inhibition: 50%

## COc1cccc(/C=C/C(=O)N[C@H]2[C@@H](O)[C@H](n3cnc4c(N)ncnc43)O[C@@H]2CO)c1
[15]
  inhibition: 20%

## CC(C)CC(=O)C(=O)C(O)CO (stereo not given)
[14]
  inhibition: 50%

## CC(=O)N1CCc2cc(S(=O)(=O)NC(CC(C)C)C(=O)CCc3ccc(O)cc3)ccc21 (stereo not given)
[16]
  IC50: 2.7 µM

## NC(=S)CS(=O)(=O)c1cccs1
[15]; filed as antagonist
  inhibition: 60%

## CCCCCCC[C@@H](C/C=C/CCC(=O)O)OC
[17]
  inhibition: 100%

## O=C(O)[C@@H]1[C@H](C(=O)O)[C@@H]2C=C[C@H]1C2
[18]
  MIC: 8 µg/mL (≈ 43.9 µM)

## COc1ccc(CCC(=O)N[C@@H]2[C@@H](CO)OC(OC)[C@@H]2O)cc1 (stereo not given in full)
[15]; filed as antagonist
  inhibition: 40%

## COc1ccc(CCC(=O)NC[C@H]2[C@@H](O)[C@H](n3cnc4c(N)ncnc43)O[C@@H]2CO)cc1
[15]
  inhibition: 20%

## N#Cc1ccc(B(O)O)cc1
[2]
  IC50: 6 µM

## COc1ccc(CCC(=O)N[C@H]2[C@@H](O)[C@H](n3cnc4c(N)ncnc43)O[C@@H]2CO)cc1
[15]; filed as antagonist
  inhibition: 80%

## OB(O)c1ccc(OCc2ccccc2)cc1
[2]
  IC50: 4 µM

## COc1cc(/C=C/C(=O)c2c(O)cc(O)cc2OC)ccc1O
[3]
  inhibition at 500 µM: 60%

## Cc1cc(C(C)(C)C)c(O)c(C(C)(C)C)c1 [BUTYLATED HYDROXYTOLUENE]
[19]
  inhibition at 250 µg/mL: 80%
[20]
  fold change (FC): 0.5
[21]
  fold change (FC): 1.9
[22]
  inhibition at 250 µg/mL: 82%
[23]
  fold change (FC): 0.9
[24]
  inhibition at 250 µg/mL: 65%
[25]
  survival at 250 µg/mL: 75%
[26]
  fold change (FC): 0.1
[27]
  fold change (FC): 0.7

## Nc1ncnc2c1ncn2[C@@H]1O[C@H](CO)[C@@H](N)[C@H]1O
[28]
  IC50: 2.9 µM

## O=S(=O)(c1ccc(Br)s1)n1cccn1
[29]
  survival at 20 µM: 85.5%
[30]
  inhibition: 100%

## O=C(c1ccc(O)cc1)c1ccc(S(=O)(=O)c2ccc(O)cc2)cc1
[16]
  IC50: 2.6 µM

## CCCCC/C=C\C/C=C\CCCCCCCC(=O)O
[31]
  inhibition: > 99%

## Cc1ccc(B(O)O)cc1F
[2]
  IC50: 9 µM

## COC(=O)c1ccc(B(O)O)cc1
[15]; filed as antagonist
  inhibition: > 80%
[2]
  IC50: 5 µM

## C/C(=C\COc1c2ccoc2cc2oc(=O)ccc12)CCC(O)C(C)(C)O (stereo not given)
[32]
  inhibition: 96.7%

## CC(C)=CCC/C(C)=C/COc1c2ccoc2cc2oc(=O)ccc12
[32]
  inhibition: 96.7%

## CCCCCCCC/C=C\CCCCCCCC(=O)O
[31]
  inhibition: > 75%

## CCCCCCCCCCCCCCCCCC(=O)O
[31]
  inhibition: > 25%

## CCCCCCCCCCCCCCCC(=O)O
[31]
  inhibition: 25%

## [N-]=[N+]=N[C@H]1[C@@H](O)[C@H](n2cnc3c(N)ncnc32)O[C@@H]1CO
[28]
  IC50: 2.7 µM

## O=c1cc(-c2ccc(O)cc2)oc2cc(O)cc(O)c12
[33]
  inhibition: 60%
